Results: patent publication US20060029544A1, “Receptor-binding cyclic peptides and methods of use” (The Regents of the University of California Office of …, priority 2004, published 2006)
pIC50: −log10 of the molar value. Each block holds one compound with its values, some of them ahead of it.

Tests used:
αIIbβ3 integrin = molecular target: T1, αIIbβ3 integrin (Homo sapiens, UniProt P05106+P08514); assay: ELISA: biotinylated fibrinogen binding to captured soluble αIIbβ3-mFc in the presence of RGD peptides
T1 construct: chimeras comprising the extracellular domain of αvβ3, αvβ5, α5β1, and αIIbβ3 linked to the Fc domain of either mouse IgG; purchased Celltech plc (supplied, no catalogue number); host or cells: unpurified hybridoma / tissue culture supernatant from secreting cells
Text: (§1) Four different soluble integrins were supplied by Celltech plc. Soluble forms of αvβ3, αvβ5, α5β1, and αIIbβ3 integrin were generated by constructing chimeras comprising the extracellular domain of αvβ3, αvβ5, α5β1, and αIIbβ3 linked to the Fc domain of either mouse IgG (αvβ3-mFc, αvβ5-mFc, and αIIbβ3-mFc) or human IgG (α5β1-hFc) as described by Stephens et al., Cell Adhes. Commun., 7:377-390 (2000) and Coe et al., J. Biol. Chem., 276:35854-35866 (2001). Since the four soluble integrin chimeras were supplied either as purified proteins (αvβ3-mFc and α5β1-hFc) or as unpurified hybridoma supernatants (αIIbβ3-mFc and αvβ5-mFc), it was necessary to use two types of ELISAs. […] In one type of ELISA (FIGS. 2A and 2B), the immobilized component is a 50 kDa fragment of fibronectin. In the second type of ELISA (FIGS. 2C and 2D), the immobilized component is a goat anti-mFc antibody that is used to capture chimeric proteins so that the RGD binding site of the integrin is maximally exposed. Each three-sided box in FIG. 2 represents a single well of a 96-well plate, and the components are listed in the sequence of their addition to the assay. The immobilized component at the bottom of the well is bound to the well by electrostatic interactions.
The plates were washed with PBS using a Denley Wellwash 4 Mk 2. Washing was repeated twice with a 400 μl wash per well. 200 μl/well of blocking buffer was then added for 1 hour followed by a repeat washing with PBS. 100 μl of tissue culture supernatant from cells secreting soluble αIIbβ3-mFc or αvβ5-mFc, diluted 1:2 in conjugate buffer, was added to each well. […] After incubation, the plates were washed with PBS as described above. 100 μl of neutravidin-peroxidase was added to each well and the plates were incubated for 30 minutes with shaking, followed by two washes with PBS. 100 μl of TMB substrate was added to each well and the plates were shaken during color development. Plates were read using a plate spectrophotometer at 630 nm.
Two negative and two positive controls were used in both types of ELISAs.
(§2) FIGS. 3-6 illustrate the percent binding of the vitronectin, fibronectin, or fibrinogen ligand to αvβ5, α5β1, αIIbβ3, or αvβ3 integrin in the presence of RGD peptides (i.e., linear (A), cyclic (B), or 4-[^19F]-fluorobenzoyl cyclic (C)) at different concentrations, with 100% maximum signal being the signal obtained in the absence of the peptide.

[1] = test system: A375M, a human melanoma which expresses αvβ3 integrin; assay: PET imaging (ECAT 951R) of mice bearing A375M tumors; format: in vivo; settings: 30 minutes after injection
Experimental: (§3) In vivo biodistribution studies were performed in mice using A375M, a human melanoma which expresses αvβ3 integrin. MF1 nu/nu mice were given subcutaneous injections of A375M cells into the left inguinal region. Once tumors reached 4-10 mm in size, mice (n=5 mice per time point) were injected with 50 kBq of [^18F]-C7 and sacrificed at 15, 30, and 60 minutes after injection. A second group of animals (n=3) was injected with 50 kBq of [^18F]-C7, sacrificed at 30minutes after injection, and imaged using an ECAT 951R whole body PET scanner.

[2] = test system: A375M, a human melanoma which expresses αvβ3 integrin; assay: In vivo biodistribution in mice bearing A375M tumors; settings: mouse
Experimental: as §3

αvβ5 integrin = molecular target: T2, αvβ5 integrin (Homo sapiens, UniProt P06756+P18084); assay: ELISA: biotinylated vitronectin binding to captured soluble αvβ5-mFc in the presence of RGD peptides
T2 construct: chimeras comprising the extracellular domain of αvβ3, αvβ5, α5β1, and αIIbβ3 linked to the Fc domain of either mouse IgG; purchased Celltech plc (supplied, no catalogue number); host or cells: unpurified hybridoma / tissue culture supernatant from secreting cells
Text: as §1
To analyze the affinity and selectively of RGD peptides for αIIbβ3 and αvβ5, 96-well ELISA plates were coated with anti-murine Fc antibody at 5 μg/ml in PBS, 100 μl per well and left overnight at 4° C. The plates were washed with PBS using a Denley Wellwash 4 Mk 2. Washing was repeated twice with a 400 μl wash per well. 200 μl/well of blocking buffer was then added for 1 hour followed by a repeat washing with PBS. 100 μl of tissue culture supernatant from cells secreting soluble αIIbβ3-mFc or αvβ5-mFc, diluted 1:2 in conjugate buffer, was added to each well. Plates were incubated with shaking for 1 hour followed by two washes with PBS. 100 μl of an RGD peptide (at concentrations of 200, 20, and 2 μM), followed by either 100 μl of biotinylated fibrinogen (at 1 μg/ml in conjugate buffer) or 100 μl of biotinylated vitronectin (at 2 μg/ml in conjugate buffer) were added to each well and incubated for 2 hours with shaking. After incubation, the plates were washed with PBS as described above. 100 μl of neutravidin-peroxidase was added to each well and the plates were incubated for 30 minutes with shaking, followed by two washes with PBS. 100 μl of TMB substrate was added to each well and the plates were shaken during color development. Plates were read using a plate spectrophotometer at 630 nm.
(§4) Two negative and two positive controls were used in both types of ELISAs. For example, the negative controls were wells that contained 50 μl of an active control peptide, integrin, and biotinylated ligand or 50 μl of the active control peptide and 50 μl of buffer. These negative control wells typically develop little to no color. […] These wells typically develop the maximum amount of color.
as §2

α5β1 integrin = molecular target: T3, α5β1 integrin (Homo sapiens, UniProt P05556+P08648); assay: ELISA: soluble α5β1-hFc binding to immobilized 50 kDa fibronectin fragment in the presence of RGD peptides
T3 construct: chimeras comprising the extracellular domain of αvβ3, αvβ5, α5β1, and αIIbβ3 linked to the Fc domain of either mouse IgG; purchased Celltech plc (supplied, no catalogue number)
Text: as §1
To analyze the affinity and selectively of RGD peptides for αvβ3 and α5β1, 96-well ELISA plates were coated with 100 μl of a 5 μg/ml of the 50 kDa fragment of fibronectin in PBS per well and left overnight at 4° C. The plates were washed with PBS using a Denley Wellwash 4 Mk 2. Washing was repeated twice with a 400 μl wash per well. 200 μ/well of blocking buffer (i.e., to prevent non-specific binding of proteins) was then added for 1 hour followed by a repeat washing with PBS. RGD peptides were then added at a maximum concentration of 200 μM and a preliminary screen was performed at three concentrations, 200,20, and 2 μM. 100 μl of an RGD peptide was added to each well and each assay was performed in triplicate. Purified soluble αvβ3-mFc or purified α5β1-hFc was diluted to 2 μg/ml and 15 ng/ml, respectively, in conjugate buffer and 100 μl was added to each well. The plates were incubated for 2 hours with shaking using a Luckham R100 Rotatest at approximately 150 rpm. After incubation, the plates were washed with PBS as previously described and a labeled antibody was added. For the αvβ3 assay, a horseradish peroxidase (HRP)-labeled F(ab′)2 fragment of goat anti-mouse IgG Fc was diluted 1:2000 in conjugate buffer and 100 μl was added to each well. For the α5β1 assay, an HRP-labeled F(ab′)2 fragment of goat anti-human IgG Fc was diluted 1:2000 in conjugate buffer and 100 μl was added to each well. Plates were incubated for 30 minutes with shaking followed by 2 washes with PBS. 100 μl of TMB substrate was added to each well and plates were shaken during a 10 minute color development. Plates were read using a plate spectrophotometer at 630 nm.
as §4, §2

T1 sequence (P08514 32-993 limits assumed): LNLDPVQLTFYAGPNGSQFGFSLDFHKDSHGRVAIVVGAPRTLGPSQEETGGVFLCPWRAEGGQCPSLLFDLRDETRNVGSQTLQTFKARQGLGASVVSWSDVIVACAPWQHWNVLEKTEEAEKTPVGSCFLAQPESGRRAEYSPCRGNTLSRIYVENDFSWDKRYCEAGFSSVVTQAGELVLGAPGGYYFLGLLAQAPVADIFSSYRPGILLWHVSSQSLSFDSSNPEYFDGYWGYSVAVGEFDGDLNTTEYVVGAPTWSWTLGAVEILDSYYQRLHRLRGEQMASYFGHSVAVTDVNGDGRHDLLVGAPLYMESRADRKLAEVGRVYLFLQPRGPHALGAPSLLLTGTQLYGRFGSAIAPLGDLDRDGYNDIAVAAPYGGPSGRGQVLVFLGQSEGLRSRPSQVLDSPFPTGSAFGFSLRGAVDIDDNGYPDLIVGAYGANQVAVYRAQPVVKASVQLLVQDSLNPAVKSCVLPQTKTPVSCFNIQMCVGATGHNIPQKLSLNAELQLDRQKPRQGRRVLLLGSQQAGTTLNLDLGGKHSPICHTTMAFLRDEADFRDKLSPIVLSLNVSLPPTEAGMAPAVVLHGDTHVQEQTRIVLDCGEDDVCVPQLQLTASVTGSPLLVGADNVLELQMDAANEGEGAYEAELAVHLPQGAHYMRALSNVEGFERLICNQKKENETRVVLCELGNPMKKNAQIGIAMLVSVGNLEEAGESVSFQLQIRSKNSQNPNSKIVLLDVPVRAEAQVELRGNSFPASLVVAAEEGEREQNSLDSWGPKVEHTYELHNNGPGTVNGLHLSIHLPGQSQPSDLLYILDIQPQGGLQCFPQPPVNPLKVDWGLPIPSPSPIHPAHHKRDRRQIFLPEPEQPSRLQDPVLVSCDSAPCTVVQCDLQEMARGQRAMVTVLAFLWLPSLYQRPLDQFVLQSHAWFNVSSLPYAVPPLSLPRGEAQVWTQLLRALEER
T1 sequence (P05106 27-718 limits assumed): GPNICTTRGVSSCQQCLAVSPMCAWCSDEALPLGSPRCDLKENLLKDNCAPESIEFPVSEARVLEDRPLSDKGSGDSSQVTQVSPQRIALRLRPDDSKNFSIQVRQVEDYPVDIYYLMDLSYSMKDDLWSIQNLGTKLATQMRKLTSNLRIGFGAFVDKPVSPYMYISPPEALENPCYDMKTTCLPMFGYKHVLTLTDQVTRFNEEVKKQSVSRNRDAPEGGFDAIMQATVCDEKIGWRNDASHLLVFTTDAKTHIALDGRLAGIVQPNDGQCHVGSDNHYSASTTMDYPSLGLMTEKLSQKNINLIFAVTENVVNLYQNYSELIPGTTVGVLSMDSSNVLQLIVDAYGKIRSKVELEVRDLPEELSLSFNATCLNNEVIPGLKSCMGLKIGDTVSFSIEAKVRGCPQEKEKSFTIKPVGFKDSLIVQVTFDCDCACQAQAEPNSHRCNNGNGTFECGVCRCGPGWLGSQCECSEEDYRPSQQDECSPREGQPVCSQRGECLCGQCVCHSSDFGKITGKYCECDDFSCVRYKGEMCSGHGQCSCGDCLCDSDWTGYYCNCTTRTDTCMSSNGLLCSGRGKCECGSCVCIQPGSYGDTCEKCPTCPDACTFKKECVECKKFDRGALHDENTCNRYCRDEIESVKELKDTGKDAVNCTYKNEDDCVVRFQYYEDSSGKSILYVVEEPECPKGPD
T2 sequence (P06756 31-992 limits assumed): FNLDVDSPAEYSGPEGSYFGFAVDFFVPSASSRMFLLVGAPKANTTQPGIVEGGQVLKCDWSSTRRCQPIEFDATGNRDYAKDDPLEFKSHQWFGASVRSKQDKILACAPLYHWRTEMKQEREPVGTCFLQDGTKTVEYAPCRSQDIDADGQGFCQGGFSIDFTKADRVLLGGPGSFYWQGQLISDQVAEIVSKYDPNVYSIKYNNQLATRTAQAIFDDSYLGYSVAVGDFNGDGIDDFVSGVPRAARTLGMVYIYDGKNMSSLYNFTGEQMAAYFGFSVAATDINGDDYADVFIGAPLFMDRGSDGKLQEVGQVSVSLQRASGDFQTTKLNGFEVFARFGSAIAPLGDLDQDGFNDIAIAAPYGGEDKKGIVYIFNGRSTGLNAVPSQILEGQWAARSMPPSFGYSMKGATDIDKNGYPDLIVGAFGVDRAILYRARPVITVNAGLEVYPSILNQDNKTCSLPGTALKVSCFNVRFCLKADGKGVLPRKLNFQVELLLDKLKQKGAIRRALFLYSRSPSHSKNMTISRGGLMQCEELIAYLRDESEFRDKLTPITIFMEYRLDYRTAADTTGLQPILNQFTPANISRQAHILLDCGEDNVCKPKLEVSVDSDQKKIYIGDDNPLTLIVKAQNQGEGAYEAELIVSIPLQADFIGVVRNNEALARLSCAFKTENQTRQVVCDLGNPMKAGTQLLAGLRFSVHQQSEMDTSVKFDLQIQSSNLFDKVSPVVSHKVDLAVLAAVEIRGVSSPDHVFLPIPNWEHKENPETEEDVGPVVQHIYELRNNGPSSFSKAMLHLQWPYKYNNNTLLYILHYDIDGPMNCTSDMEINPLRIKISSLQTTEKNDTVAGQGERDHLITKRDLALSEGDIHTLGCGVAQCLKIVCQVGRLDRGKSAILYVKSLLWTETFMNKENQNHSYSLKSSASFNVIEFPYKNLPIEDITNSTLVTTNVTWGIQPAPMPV
T2 sequence (P18084 24-719 limits assumed): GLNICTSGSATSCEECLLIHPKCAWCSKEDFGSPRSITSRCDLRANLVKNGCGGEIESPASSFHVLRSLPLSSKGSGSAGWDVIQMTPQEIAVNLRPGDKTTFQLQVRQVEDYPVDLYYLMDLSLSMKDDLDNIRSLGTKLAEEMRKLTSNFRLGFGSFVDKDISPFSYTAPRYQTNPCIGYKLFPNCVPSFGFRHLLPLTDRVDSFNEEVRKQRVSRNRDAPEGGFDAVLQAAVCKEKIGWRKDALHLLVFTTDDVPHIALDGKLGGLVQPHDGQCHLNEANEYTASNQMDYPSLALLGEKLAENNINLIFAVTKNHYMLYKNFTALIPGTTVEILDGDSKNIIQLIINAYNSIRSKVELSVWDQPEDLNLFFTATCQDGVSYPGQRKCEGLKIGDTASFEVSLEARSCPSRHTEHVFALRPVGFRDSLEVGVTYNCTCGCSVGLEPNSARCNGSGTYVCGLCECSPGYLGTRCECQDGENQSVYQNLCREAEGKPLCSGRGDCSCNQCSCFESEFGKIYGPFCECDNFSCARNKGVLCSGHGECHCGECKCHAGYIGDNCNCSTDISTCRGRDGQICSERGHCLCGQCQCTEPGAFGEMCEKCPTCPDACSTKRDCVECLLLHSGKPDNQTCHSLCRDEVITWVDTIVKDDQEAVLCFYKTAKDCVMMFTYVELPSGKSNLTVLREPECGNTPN
T3 sequence (P08648 42-995 limits assumed): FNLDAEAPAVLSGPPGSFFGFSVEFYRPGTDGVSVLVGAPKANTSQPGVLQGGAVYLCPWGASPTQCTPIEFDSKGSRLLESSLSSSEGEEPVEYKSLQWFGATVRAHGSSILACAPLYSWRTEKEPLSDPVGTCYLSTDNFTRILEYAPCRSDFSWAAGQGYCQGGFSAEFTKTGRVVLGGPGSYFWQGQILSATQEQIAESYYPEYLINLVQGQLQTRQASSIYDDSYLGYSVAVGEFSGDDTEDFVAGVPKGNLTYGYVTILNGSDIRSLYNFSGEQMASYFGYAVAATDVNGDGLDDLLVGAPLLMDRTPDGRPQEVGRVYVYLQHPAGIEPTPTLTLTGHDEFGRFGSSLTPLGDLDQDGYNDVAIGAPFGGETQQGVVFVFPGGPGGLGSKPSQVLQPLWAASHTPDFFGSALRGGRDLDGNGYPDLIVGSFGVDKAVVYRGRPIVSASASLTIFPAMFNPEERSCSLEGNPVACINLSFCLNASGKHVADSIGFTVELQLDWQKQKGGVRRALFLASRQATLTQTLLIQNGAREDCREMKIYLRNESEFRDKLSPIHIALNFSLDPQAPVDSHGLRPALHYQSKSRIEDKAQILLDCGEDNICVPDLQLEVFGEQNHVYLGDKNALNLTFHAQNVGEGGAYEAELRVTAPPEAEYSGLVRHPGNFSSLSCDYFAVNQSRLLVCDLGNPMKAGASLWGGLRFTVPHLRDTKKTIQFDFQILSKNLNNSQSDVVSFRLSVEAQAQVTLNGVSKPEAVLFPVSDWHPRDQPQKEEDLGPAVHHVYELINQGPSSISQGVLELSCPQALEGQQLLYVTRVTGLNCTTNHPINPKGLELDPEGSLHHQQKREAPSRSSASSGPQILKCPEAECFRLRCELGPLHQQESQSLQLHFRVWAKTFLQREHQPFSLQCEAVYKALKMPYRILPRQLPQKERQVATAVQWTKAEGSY
T3 sequence (P05556 21-728 limits assumed): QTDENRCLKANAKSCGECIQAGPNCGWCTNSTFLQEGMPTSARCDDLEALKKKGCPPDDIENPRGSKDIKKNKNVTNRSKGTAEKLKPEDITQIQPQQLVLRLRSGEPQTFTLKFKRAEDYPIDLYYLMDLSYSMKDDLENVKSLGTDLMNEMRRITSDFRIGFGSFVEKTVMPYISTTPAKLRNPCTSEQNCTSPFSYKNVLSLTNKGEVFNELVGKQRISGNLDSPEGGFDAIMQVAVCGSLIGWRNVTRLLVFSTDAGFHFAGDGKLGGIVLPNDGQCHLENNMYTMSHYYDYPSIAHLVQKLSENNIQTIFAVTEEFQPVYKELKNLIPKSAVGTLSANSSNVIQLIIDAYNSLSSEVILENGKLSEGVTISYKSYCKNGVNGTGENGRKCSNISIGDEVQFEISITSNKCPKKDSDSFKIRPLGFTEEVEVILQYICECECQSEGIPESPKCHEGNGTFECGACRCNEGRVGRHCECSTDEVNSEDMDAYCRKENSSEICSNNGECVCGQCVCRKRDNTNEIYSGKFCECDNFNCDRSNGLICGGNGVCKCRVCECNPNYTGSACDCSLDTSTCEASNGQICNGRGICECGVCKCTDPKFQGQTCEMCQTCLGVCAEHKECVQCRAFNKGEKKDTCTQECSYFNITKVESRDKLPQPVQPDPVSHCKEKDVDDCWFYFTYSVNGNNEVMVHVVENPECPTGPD

selectivity for αIIbβ3 integrin (αIIbβ3 integrin): high selectivity for αIIbβ3 integrin
fibrinogen binding to αIIbβ3 (αIIbβ3 integrin; 2 nM peptide): 59%
effect on the binding of αIIbβ3 to fibrinogen (αIIbβ3 integrin; nanomolar concentrations): significant effect
Compound: RGDY(OMe)KE [C1]

tumor to organ ratio, heart [2]: 5.83
tumor to organ ratio, lung [2]: 2.33
tumor to organ ratio, muscle [2]: 11.67
tumor to organ ratio, skin [2]: 1.6
Compound: 4-[^18F]-fluorobenzoyl cyclic (RGDY(OMe)K) [[^18F]-C7]
uptake in PET images [1]: distinct areas of [^18F]-C7 uptake in the lower region of the mouse

Compound: COc1ccc(C[C@@H]2NC(=O)[C@H](CC(=O)O)NC(=O)CNC(=O)[C@H](CCCNC(=N)N)NC(=O)[C@H](CCCCNC(=O)c3ccc(F)cc3)NC2=O)cc1 [C7, 4-[^19F]-fluorobenzoyl cyclic (RGDY(OMe)K)]
vitronectin binding to αvβ5, % of the maximum signal (αvβ5 integrin; 2 μM peptide, 100% = signal without peptide): 26.1%
pIC50 (αvβ5 integrin; text b200, read-out: IC50 for αvβ5): 5.77
fibronectin binding to α5β1, % of the maximum signal (α5β1 integrin; 2 μM peptide): 47%
pIC50 (α5β1 integrin; text b200, read-out: IC50 for α5β1): 6.32
